The species entered for one assay is Cavia porcellus. Put plainly: Compound was evaluated for antagonism of the contractile effect in guinea pig ileum preparation. Type of assay: functional.
Assay [1] addresses T1, Substance-P receptor (Homo sapiens, UniProt P25103). Put plainly: Compound was evaluated for binding affinity against human Tachykinin receptor 1.
Assay [2] has as its target T1, Substance-P receptor. The assay is described as follows: Compound was evaluated for its affinity, measured in [3H]SP binding assay on human IM9 lymphoblast cultured cell line.
Assay [3] has as its target Substance-P receptor (Cavia porcellus, UniProt P30547). The assay is described as follows: Compound was evaluated for its affinity to guinea pig Tachykinin receptor 1.
The target in assay [4] is Substance-P receptor (Rattus norvegicus, UniProt P14600). Put plainly: Compound was evaluated for its affinity to rat Tachykinin receptor 1.
The species entered for a further assay is Mus musculus. Put plainly: Compound was evaluated for inhibiting PBQ induced writhing in mice perorally. The assay is classed as functional.

T1 sequence (P25103 whole entry): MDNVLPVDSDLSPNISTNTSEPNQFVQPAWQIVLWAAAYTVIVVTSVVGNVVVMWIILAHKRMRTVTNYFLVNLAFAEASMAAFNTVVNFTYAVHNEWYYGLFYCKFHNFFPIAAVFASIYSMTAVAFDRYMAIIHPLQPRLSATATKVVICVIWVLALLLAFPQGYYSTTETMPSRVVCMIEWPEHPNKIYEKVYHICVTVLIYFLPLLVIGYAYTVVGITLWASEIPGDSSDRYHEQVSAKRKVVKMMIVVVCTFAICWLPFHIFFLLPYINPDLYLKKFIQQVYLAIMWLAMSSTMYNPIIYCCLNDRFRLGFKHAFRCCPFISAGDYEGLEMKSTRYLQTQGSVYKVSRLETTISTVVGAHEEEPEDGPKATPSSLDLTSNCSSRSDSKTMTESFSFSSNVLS
Sequence of Substance-P receptor (Cavia porcellus, UniProt P30547) (P30547 whole entry): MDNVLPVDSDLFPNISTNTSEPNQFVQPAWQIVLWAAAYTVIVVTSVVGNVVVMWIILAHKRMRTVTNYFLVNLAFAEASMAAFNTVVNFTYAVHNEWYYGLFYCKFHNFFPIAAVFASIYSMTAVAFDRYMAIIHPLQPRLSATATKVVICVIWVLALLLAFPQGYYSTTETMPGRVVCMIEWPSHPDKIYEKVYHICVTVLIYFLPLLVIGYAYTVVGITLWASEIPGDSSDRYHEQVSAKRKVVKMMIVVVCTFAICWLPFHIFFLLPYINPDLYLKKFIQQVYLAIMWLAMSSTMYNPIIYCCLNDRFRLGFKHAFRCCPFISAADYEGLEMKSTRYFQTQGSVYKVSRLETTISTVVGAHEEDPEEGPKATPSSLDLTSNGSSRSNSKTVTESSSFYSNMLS
Sequence of Substance-P receptor (Rattus norvegicus, UniProt P14600) (P14600 whole entry): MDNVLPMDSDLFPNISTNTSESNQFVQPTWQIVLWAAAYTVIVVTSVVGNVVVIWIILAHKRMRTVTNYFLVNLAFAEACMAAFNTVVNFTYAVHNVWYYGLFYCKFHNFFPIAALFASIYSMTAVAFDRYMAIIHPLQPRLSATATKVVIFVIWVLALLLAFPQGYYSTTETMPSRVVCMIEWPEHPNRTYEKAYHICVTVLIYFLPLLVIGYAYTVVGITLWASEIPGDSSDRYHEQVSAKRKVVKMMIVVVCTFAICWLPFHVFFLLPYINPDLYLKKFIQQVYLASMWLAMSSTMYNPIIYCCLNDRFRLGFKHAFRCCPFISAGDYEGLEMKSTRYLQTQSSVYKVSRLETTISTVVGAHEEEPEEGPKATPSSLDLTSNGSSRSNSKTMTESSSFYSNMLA

For `COc1ccccc1[C@H](C)C(=O)N1CC2[C@@H](C1)C(c1ccccc1)(c1ccccc1)CC[S+]2[O-]` (stereo partly specified), the IC50 (commonly the concentration that inhibits the measured activity by half) in the assay filed under Cavia porcellus is 20 nM; at Substance-P receptor [1], 23 nM; on Substance-P receptor [2], 49 nM; against Substance-P receptor [3] it was 70 nM; against Substance-P receptor [4], 10 nM. Besides, in the assay listed under Mus musculus, it took a dose of 5 mg/kg to reach the 50% effect level (ED50).
